Measurements as given in patent publication US4927919A, “Chartreusin derivatives and salts thereof” (Ishihara Sangyo Kaisha, Ltd., priority 1985, dated 1990).
Counter-ions that a name gives are not always drawn.

Assays:
P-388 leukemia cells = test: Antitumor activity against P-388 leukemia cells (i.p. implanted, i.v. drug); type: in vivo, BDF1 mice; settings: Mus musculus, P388, iv, 720 h, i.v., 30-day observation, read-out: T/C of MST; for response vs control in vivo at 30 mg/kg: dose j: 30 mg/kg/d × 3 (days 1, 5, 9); for response vs control in vivo at 60 mg/kg: dose e: 60 mg/kg/d × 3 (days 1, 5, 9); for response vs control in vivo at 20 mg/kg: dose b: 20 mg/kg/d × 3 (days 1, 5, 9); for response vs control in vivo at 80 mg/kg: dose f: 80 mg/kg/d × 3 (days 1, 5, 9); for response vs control in vivo at 40 mg/kg: dose c: 40 mg/kg/d × 3 (days 1, 5, 9)
Experimental: BDF1 mice were implanted intraperitoneally with P-388 leukemia cells at a rate of 1×10^6 cells/mouse, and each drug to be tested was administered intravenously on the first, fifth and ninth days, or on the first and fifth days after the implantation. […] The T/C (%) was calculated based on the following equation: [formula]
The drugs tested were as follows: solutions prepared by dissolving each of compound Nos. 34, 36 and 43 to 46 in physiological saline; suspension or solutions prepared by dissolving each of compound Nos. 35, 38 and 49 to 55 in dimethylacetamide, followed by adding thereto a small amount of a surface active agent (e.g., Tween-80) and then physiological saline; and suspension or solutions prepared by mixing each of the other compounds and a small amount of a surface active agent (e.g., Tween-80), followed by adding thereto physiological saline.

[1] = Acute toxicity (LD50, single intravenous administration); set-up: species or system day mice; settings: mouse, in vivo, mice, single i.v.
Source text: In Table 15 are shown acute toxicity values (LD50, mg/kg) in day mice in the case of intravenously administering (once) each of the compounds of this invention in the form of preparations shown in the Preparation Examples shown in Table 16.

SMILES | LD50 ([1]; Preparation Example 8) [mg/kg] | response vs control in vivo at 20 mg/kg (P-388 leukemia cells) [%] | response vs control in vivo at 80 mg/kg (P-388 leukemia cells) [%] | response vs control in vivo at 40 mg/kg (P-388 leukemia cells) [%] | other results
COC1C(N)C(C)OC(OC2C(Oc3cccc4c(OC(=O)C(CN)C(C)C)c5c(=O)oc6ccc(C)c7c(=O)oc(c34)c5c67)OC(C)C3OC(c4ccccc4)OC32)C1O (stereo not drawn) [Compound 45] | ≥ 30 | – | – | – | response vs control in vivo at 30 mg/kg (P-388 leukemia cells): 131%
CCn1cc(C(=O)Oc2c3cccc(OC4OC(C)C5OC(c6ccccc6)OC5C4OC4OC(C)C(O)C(OC)C4O)c3c3oc(=O)c4c(C)ccc5oc(=O)c2c3c54)c(=O)c2cnc(N3CCNCC3)nc21 (stereo not drawn) [Compound 106] | – | – | – | – | response vs control in vivo at 60 mg/kg (P-388 leukemia cells): 244%; response vs control in vivo at 30 mg/kg (P-388 leukemia cells): 188%; LD50 ([1]; Preparation Example 1): ≥ 60 mg/kg
COC1C(O)C(C)OC(OC2C(Oc3cccc4c(OC(=O)c5cc(-c6ccccc6)nc6ccccc56)c5c(=O)oc6ccc(C)c7c(=O)oc(c34)c5c67)OC(C)C3OC(c4ccccc4)OC32)C1O (stereo not drawn) [Compound 28] | – | 197 | 192 | – | LD50 ([1]; Preparation Example 1): ≥ 20 mg/kg
COC1C(O)C(C)OC(OC2C(Oc3cccc4c(OC(=O)Cc5cccs5)c5c(=O)oc6ccc(C)c7c(=O)oc(c34)c5c67)OC(C)C3OC(C)(C)OC32)C1O (stereo not drawn) [Compound 13] | – | – | 182 | 134 | LD50 ([1]; Preparation Example 3): ≥ 80 mg/kg
COC1C(O)C(C)OC(OC2C(Oc3cccc4c(OC(=O)C=Cc5ccco5)c5c(=O)oc6ccc(C)c7c(=O)oc(c34)c5c67)OC(C)C3OC(C)(C)OC32)C1O (stereo not drawn) [Compound 9] | – | – | 194 | – | LD50 ([1]; Preparation Example 3): ≥ 80 mg/kg
COC1C(O)C(C)OC(OC2C(Oc3cccc4c(OC(=O)c5cc6ccccc6[nH]5)c5c(=O)oc6ccc(C)c7c(=O)oc(c34)c5c67)OC(C)C3OC(c4cccc(F)c4)OC32)C1O (stereo not drawn) [Compound 30, 6-O-(2-indolyl-carbonyl)-3',4'-O-(m-fluorobenzylidene)-chartreusin] | – | – | 142 | – | LD50 ([1]; Preparation Example 2): ≥ 80 mg/kg
COC1C(N)C(C)OC(OC2C(Oc3cccc4c(OC(=O)CCNC(=O)CN)c5c(=O)oc6ccc(C)c7c(=O)oc(c34)c5c67)OC(C)C3OC(c4ccccc4)OC32)C1O (stereo not drawn) [Compound 46] | ≥ 40 | – | – | 148 | –
COC1C(N)C(C)OC(OC2C(Oc3cccc4c(OC(=O)CC(C)C)c5c(=O)oc6ccc(C)c7c(=O)oc(c34)c5c67)OC(C)C3OC(c4ccccc4)OC32)C1O (stereo not drawn) [Compound 39, 6-O-(3-methyl-n-butyryl)-3',4',-O-benzylidene-4"-epiamino-4"-deoxy-chartreusin hydrochloride] | – | – | – | 207 | response vs control in vivo at 60 mg/kg (P-388 leukemia cells): 240%; LD50 ([1]; Preparation Example 9): ≥ 60 mg/kg
COC1C(O)C(C)OC(OC2C(Oc3cccc4c(OC(=O)CCCCC5CCSS5)c5c(=O)oc6ccc(C)c7c(=O)oc(c34)c5c67)OC(C)C3OC(c4ccccc4)OC32)C1O (stereo not drawn) [Compound 15] | – | 153 | – | 201 | LD50 ([1]; Preparation Example 2): ≥ 40 mg/kg
CNCCC(=O)Oc1c2cccc(OC3OC(C)C4OC(c5ccccc5)OC4C3OC3OC(C)C(N)C(OC)C3O)c2c2oc(=O)c3c(C)ccc4oc(=O)c1c2c43 (stereo not drawn) [Compound 43] | ≥ 40 | 150 | – | 230 | –
COC1C(O)C(C)OC(OC2C(Oc3cccc4c(OC(=O)c5ccc(C)s5)c5c(=O)oc6ccc(C)c7c(=O)oc(c34)c5c67)OC(C)C3OC(C)(C)OC32)C1O (stereo not drawn) [Compound 12] | – | – | 194 | – | LD50 ([1]; Preparation Example 3): ≥ 80 mg/kg
COC1C(N)C(C)OC(OC2C(Oc3cccc4c(OC(=O)C(C)CN)c5c(=O)oc6ccc(C)c7c(=O)oc(c34)c5c67)OC(C)C3OC(c4ccccc4)OC32)C1O (stereo not drawn) [Compound 34, 6-O-(β-amino-isobutyryl)-3',4'-benzylidene-4"-epiamino-4"-deoxy-chartreusin dihydrochloride] | ≥ 40 | 140 | – | 219 | –
COC1C(N)C(C)OC(OC2C(Oc3cccc4c(OC(=O)C(C)CNC(=O)C(F)(F)F)c5c(=O)oc6ccc(C)c7c(=O)oc(c34)c5c67)OC(C)C3OC(C)(C)OC32)C1O (stereo not drawn) [Compound 56] | – | – | 138 | – | LD50 ([1]; Preparation Example 1): ≥ 80 mg/kg
